Read-outs that look alike come from different tables or passages of the source.
What was measured:
P. falciparum 3D7 strain = assay: Malstat assay, asexual blood stages, CQ-sensitive strain 3D7; assay type: cell-based; settings: Plasmodium falciparum; for IC50: read-out: IC50 (µM) CQ-Sensitive Strain 3D7; for IC90: 90% inhibitory concentration estimated from the IC50
Procedure: (§1) Three P. falciparum strains were used for compound testing; a strain sensitive to chloroquine (CQ) 3D7, CQ-resistant strain Dd2 and P. falciparum gametocyte producing NF54 strain. The 3D7 and Dd2 strains were used to investigate the effect of the compounds on asexual blood stage replication. They were cultured in RPMI 1640/HEPES medium (Gibco, Thermo Scientific, Waltham, MA, USA) containing 10 µg/mL gentamicin (Gibco Thermo Scientific, Waltham, MA, USA,), 50 µg/mL hypoxanthine (Sigma-Aldrich, St. Louis, MO, USA), 0.5% v/v Albumax II (Gibco, Thermo Scientific, Waltham, MA, USA) and 5% hematocrit. Cultures were maintained at 37 °C using a gas mixture containing 5% CO2, 5% O2 and 90% N2. […] To obtain highly synchronized cultures, parasite cultures consisting mainly of ring stages were centrifuged, the pellet was resuspended in 10 mL of 5% w/v sorbitol/ddH20 and incubated for 10 min at room temperature. After washing the cells with RPMI to remove residual sorbitol, they were again cultivated, as described above. Erythrocyte concentrate and serum samples were obtained from the Department of Transfusion Medicine, University Hospital Aachen, Germany. The serum samples were mixed and pooled and donors were kept anonymous. The work with blood components from humans was approved by the Ethics commission of the RWTH University Hospital (EK 007/13).
(§2) The antiplasmodial effect of the compounds on P. falciparum asexual blood stage development was carried out using the Malstat assay, as described previously. Compounds dissolved in dimethyl sulfoxide (DMSO) were added to 1% ring stage P. falciparum 3D7 and Dd2 cultures (200 µL/well) in a 96-well plate in triplicate at final concentrations ranging from 100 µM to 0.78 µM. […] CQ at concentrations ranging from 500 nM to 4 nM was used as an internal control in the experiments, while parasites treated with 0.5% v/v DMSO served as the negative control. The parasites were cultured with the compounds for 72 h at 37 °C in the presence of the following gas combination: 5% O2, 5% CO2, and 90% N2. Afterwards, 20 µL of the incubated culture was removed and 100 µL of Malstat reagent (0.1% v/v Triton X-100, 1 g of L-lactate, 0.33 g Tris and 33 mg of 3-acetylpyridine adenine dinucleotide in 100 mL of distilled water, pH 9.0) was added in a new 96-well microtiter plate. Next, 20 µL mixture of NBT/Diaphorase (1:1; 1 mg/mL stock each) was added to the Malstat reaction and the parasite lactate dehydrogenase activity was then quantified by measuring the optical densities at 630 nm. IC50 values were then determined from variable-slope sigmoidal dose-response graphs using the GraphPad Prism program version 5 (GraphPad Software Inc., La Jolla, San Diego, CA, USA).

[1] = test system: P. falciparum NF54 gametocytes; assay: Gametocyte toxicity test; assay type: cell-based, Plasmodium falciparum; settings: 48 h treatment, then 7 d drug-free; for reduction of mature gametocyte numbers (in words) / reduction of mature gametocyte numbers: compound at IC50 concentration; for reduction in stage IV and V gametocyte numbers: compound at IC90 concentration
Procedure: as §1
P. falciparum NF54 parasites were cultured at high parasitemia to induce gametocyte formation. Once stage II gametocytes appeared, 1 mL of culture was aliquoted in triplicate in a 24-well plate with compounds at the respective IC50 and IC90 concentrations that was determined from Malstat assay. The gametocytes were again cultivated for 9 d with the daily replacement of medium. For the first 48 h of cultivation, the gametocytes were treated with test compounds, and subsequently compound free medium was used. On day 9, blood smears were prepared and stained with Giemsa and the gametocytemia was determined by counting the numbers of gametocytes stages IV and V in a total number of 1000 erythrocytes.
Figure 3 Effect of organosulfur compounds on gametocyte development. Cultures rich in stage II gametocyte were incubated with compounds at IC50 and IC90 concentrations for 2 d, and again cultivated for another 7 d with daily replacement of medium. The numbers of stage IV and V gametocytes were determined from Giemsa smears and normalized to 0.5% v/v DMSO treatment which served as negative control (set to 100%). Epoxomicin (Epoxo) at 60 nM served as positive control.

[2] = test system: non-infected erythrocytes; assay: Hemolytic assay; assay type: cell-based, human; settings: IC50 and IC90 concentrations, 48 h, 37 °C, compared with 0.5% v/v DMSO
Procedure: Since the malaria parasite replicates in the red blood cell, we determined if the compounds have an effect on non-infected erythrocytes using hemolytic assays. To this end, 1 mL of washed uninfected erythrocytes at 5% hematocrit in regular medium was plated in triplicate in a 96-well plate (200 µL/well) in the presence of compounds at IC50 and IC90 concentrations. Erythrocytes treated with 0.15% w/v saponin were used as lysis control and 0.5% v/v DMSO was used as the negative control. Following 48 h of incubation at 37 °C, the plate was centrifuged at 500× g for 2 min and 100 µL of the supernatant was transferred to another plate and the absorbance was measured at 550 nm with a spectrophotometer.
(§3) Figure 4 Hemolytic and cytotoxic effect of compounds. (a) Hemolytic effect of compounds. […] The absorbance of free hemoglobin was measured at OD550 nm in the supernatant and normalized to 0.15% w/v saponin (set to 100%), which served as positive control in the experiments. 0.5% v/v DMSO was used as negative control. (b) Cytotoxicity effect of compounds on Hela cells. The cells were plated in 96-well microtiter plates and cultured overnight at 37 °C. The following day, the old medium was removed and 100 µL of fresh medium containing serially diluted compounds in corresponding wells at final concentrations ranging from 100 µM to 0.8 µM was added and the culture was incubated for 72 h. After incubation, the medium was replaced by 100 µL fresh drug-free medium and 20 µL MTT (5 mg/mL) was added in each well and incubated for 3 h at 37 °C. After 3 h, the MTT preparation was then removed from each well and 100 µL solubilization solution was added. Plates were then placed on a rotator at about 500 rpm at RT until the formazan precipitate was completely resuspended and the OD was measured at 450 nm. The data are representative of three independent experiments.

[3] = MTT cytotoxicity assay, Hela cells; assay type: cell-based; settings: human, Hela cells (human cervical cancer cell line); for viability at 72 h: about 25 µM
Procedure: The MTT [3-(4,5-dimethylthiazol-2-yl)-2,5-diphenyltetrazolium bromide] assay was performed using the human cervical cancer cell (Hela) line and the hematologic malignancy human erythroleukemia (HEL) cell line to determine if the compounds were toxic (loss of viability) against human cells. MTT is taken up by viable cells and converted by mitochondrial dehydrogenases to a violet formazan product that cannot diffuse through cell membranes, and therefore crystallizes in viable cells. The adherent Hela cells were plated in 96-well microtiter plates and cultured at 37 °C overnight. Compounds were added to the cultures in different serial concentrations in triplicate the next day, and the cells were incubated for 72 h. DMSO was used as the negative control at a final concentration of 0.5% v/v, and a concentration of 15% v/v DMSO which is toxic was added as the positive control. After 72 h of drug treatment, medium-containing drug was replaced with 100 µL fresh drug-free medium. Then, 20 µL MTT (5 mg/mL) was added to each well and incubated for 3 h at 37 °C. The medium was subsequently removed and 100 µL solubilization solution (5% w/v SDS, 0.1 M HCl in 100% vol. DMSO) was added and incubated for 30 min under rotation at room temperature to solubilize the formazan crystals.
For both cell lines, the optical density (OD) of the solution was measured at 550 nm. The OD-values of cultures treated with compounds were normalized to the OD-values of 0.5% v/v DMSO control (set to 100% viability for Hela or 1 for HEL cell line). IC50 values were calculated from MTT assays using Graphpad Prism (V9).
as §3

P. falciparum Dd2 strain = assay: Malstat assay, asexual blood stages, CQ-resistant strain Dd2; assay type: cell-based; settings: Plasmodium falciparum, read-out: IC50 (µM) CQ-Resistant Strain Dd2
Procedure: as §1, §2

[4] = 3D7, ring stage parasites, 72 h, Malstat (plasmodial LDH)
[5] = DD2, ring stage parasites, 72 h, Malstat

CCOC(=O)C1=C(c2ccccc2)N=S(=O)(N2CCCCCC2)c2ccccc21 (centres unmarked) [Compound 18]
IC50 (P. falciparum 3D7 strain; [4]): 26.5 ± 1.19 µM

Cc1ccc2c(c1)C=C(c1ccccc1)N=S2(=O)N1CCCCCC1 (centres unmarked) [Compound 12]
IC50 (P. falciparum 3D7 strain; [4]): 21.3 ± 4.05 µM

CCOC(=O)C1=C(C)N=S2(=NC(c3ccccc3)=CC(c3ccccc3)=C2)c2ccccc21 (centres unmarked) [Compound 1]
IC50 (P. falciparum 3D7 strain; [4]): 3.8 ± 0.66 µM
IC90 (P. falciparum 3D7 strain; 3D7): 34.2 µM
reduction of mature gametocyte numbers (in words) [1]: only minor reduction
reduction in stage IV and V gametocyte numbers [1]: very high reduction
hemolytic effect [2]: no hemolytic effect
viability at 72 h, 50 µM [3]: > 60%
viability at 72 h [3]: > 90%

O=[S@@]1(c2ccccc2)=Nc2ccccc2-c2ncc3ccccc3c21 [Compound 23]
IC50 (P. falciparum 3D7 strain; [4]): 24.9 ± 1.06 µM

CC(C)(C)c1ccc2c(c1)C=C(c1ccccc1)N=S2(=O)N1CCCCCC1 (centres unmarked) [Compound 9]
IC50 (P. falciparum 3D7 strain; [4]): 3.3 ± 1.56 µM
IC90 (P. falciparum 3D7 strain; 3D7): 29.7 µM
IC50 (P. falciparum Dd2 strain; [5]): 6.5 ± 0.87 µM
reduction of mature gametocyte numbers [1]: about 50%
hemolytic effect [2]: no hemolytic effect
viability at 72 h, 50 µM [3]: > 60%
viability at 72 h [3]: > 90%

O=S1(N2CCCCCC2)=NC(c2ccccc2)=Cc2ccccc21 (centres unmarked) [Compound 10]
IC50 (P. falciparum 3D7 strain; [4]): 46.4 ± 2.67 µM

Cc1cccc2c1S(=O)(N1CCCCCC1)=NC(c1ccc(Br)cc1)=C2 (centres unmarked) [Compound 8]
IC50 (P. falciparum 3D7 strain; [4]): 12.5 ± 3.27 µM

CCOC(=O)C1=C(c2ccc(C)cc2)N=S(=O)(N2CCCCCC2)c2ccc(C)cc21 (centres unmarked) [Compound 17]
IC50 (P. falciparum 3D7 strain; [4]): 2.6 ± 0.7 µM
IC90 (P. falciparum 3D7 strain; 3D7): 23.4 µM
IC50 (P. falciparum Dd2 strain; [5]): 4 ± 0.28 µM
reduction of mature gametocyte numbers [1]: about 50%
hemolytic effect [2]: no hemolytic effect
viability at 72 h, 50 µM [3]: > 60%
viability at 72 h [3]: > 90%

O=S1(N2CCCCCC2)=NC(c2ccccc2)=Cc2cccc(Cl)c21 (centres unmarked) [Compound 13]
IC50 (P. falciparum 3D7 strain; [4]): 20.3 ± 1.69 µM

CCOC(=O)C1=C(C)N=S2(=NC(c3ccccc3)=CC(c3ccc(Cl)cc3)=C2)c2ccccc21 (centres unmarked) [Compound 2]
IC50 (P. falciparum 3D7 strain; [4]): 3.12 ± 0.58 µM
IC90 (P. falciparum 3D7 strain; 3D7): 27.9 µM
reduction of mature gametocyte numbers (in words) [1]: only minor reduction
reduction in stage IV and V gametocyte numbers [1]: very high reduction
hemolytic effect [2]: no hemolytic effect
viability at 72 h, 50 µM [3]: > 60%
viability at 72 h [3]: > 90%

O=S1(c2ccc(Br)cc2)=NC(c2ccccc2)=CC(c2ccc(Cl)cc2)=N1 (centres unmarked) [Compound 3]
IC50 (P. falciparum 3D7 strain; [4]): 22.1 ± 1.06 µM

CN1CCC[C@H](NC(=S)Nc2cc(C(F)(F)F)cc(C(F)(F)F)c2)C1 [Compound 20]
IC50 (P. falciparum 3D7 strain; [4]): 8 ± 0.53 µM

CC(C)[C@@H](CN=[S@@](C)(=O)c1ccccc1)NC(=S)Nc1cc(C(F)(F)F)cc(C(F)(F)F)c1 [Compound 22]
IC50 (P. falciparum 3D7 strain; [4]): 15.9 ± 1.46 µM

CCOC(=O)C1=C(c2cccs2)N=S(=O)(N2CCCCCC2)c2c1cc1ccccc1c2Cl (centres unmarked) [Compound 4]
IC50 (P. falciparum 3D7 strain; [4]): 9.1 ± 2.59 µM

O=S1(N2CCCCCC2)=NC(c2ccc(Br)cc2)=Cc2ccccc21 (centres unmarked) [Compound 6]
IC50 (P. falciparum 3D7 strain; [4]): 10.6 ± 1.53 µM

CCN(CC)CCCC(C)Nc1ccnc2cc(Cl)ccc12 (centres unmarked) [Chloroquine, reference compound]
IC50 (P. falciparum 3D7 strain; 3D7, 72 h): 0.02 ± 0.004 µM
IC50 (P. falciparum Dd2 strain; DD2, 72 h): 0.14 ± 0.063 µM

CCOC(=O)C1=C(c2cccs2)N=S(=O)(N2CCCCCC2)c2c(C)cccc21 (centres unmarked) [Compound 7]
IC50 (P. falciparum 3D7 strain; [4]): 35.8 ± 5.11 µM

CCOC(=O)C1=C(C)N=S(=O)(N2CCCCCC2)c2ccc([N+](=O)[O-])cc21 (centres unmarked) [Compound 15]
IC50 (P. falciparum 3D7 strain; [4]): 5.2 ± 1.95 µM
IC90 (P. falciparum 3D7 strain; 3D7): 46.8 µM
reduction of mature gametocyte numbers (in words) [1]: only minor reduction
reduction in stage IV and V gametocyte numbers [1]: very high reduction
hemolytic effect [2]: no hemolytic effect
viability at 72 h, 50 µM [3]: > 60%
viability at 72 h [3]: > 90%

CCOC(=O)C1=C(c2cccs2)N=S(=O)(N2CCCCCC2)c2ccccc21 (centres unmarked) [Compound 19]
IC50 (P. falciparum 3D7 strain; [4]): 31.5 ± 4.9 µM

CCOC(=O)C1=C(C)N=S(=O)(N2CCCCCC2)c2ccc(C)cc21 (centres unmarked) [Compound 11]
IC50 (P. falciparum 3D7 strain; [4]): 12 ± 4.28 µM

CC(C)C[C@@H](CN=[S@](C)(=O)c1ccccc1)NC(=S)Nc1cc(C(F)(F)F)cc(C(F)(F)F)c1 [Compound 21]
IC50 (P. falciparum 3D7 strain; [4]): 14.1 ± 1.5 µM

O=[N+]([O-])c1ccc2c(c1)C=C(c1ccccc1)N=S2(=O)N1CCCCCC1 (centres unmarked) [Compound 14]
IC50 (P. falciparum 3D7 strain; [4]): 10.3 ± 0.9 µM

From publication PMC9785921, “Evaluation of Chiral Organosulfur Compounds on Their Activity against the Malaria Parasite Plasmodium falciparum” (Tropical Medicine and Infectious Disease, 2022)
